Tested on: MV-4-11 cells
Assay: Gene expression microarray analysis (Affymetrix PrimeView) and GSEA
Assay type: cell-based, human
Parameters: RFU PODN (11730768_x_at) / Fold change /veh PODN (11730768_x_at) / RFU LINC00158 (11744669_a_at) / Fold change /veh LINC00158 (11744669_a_at) / RFU DUSP10 (11751237_a_at) / Fold change /veh DUSP10 (11751237_a_at) / RFU ID3 (11757404_x_at) / Fold change /veh ID3 (11757404_x_at) / RFU PLEKHG5 (11737974_s_at) / Fold change /veh PLEKHG5 (11737974_s_at) / RFU LRRC4B (11730491_at) / Fold change /veh LRRC4B (11730491_at) / RFU GIMAP4 (11747438_a_at) / Fold change /veh GIMAP4 (11747438_a_at) / RFU KRT8 (11758183_x_at) / Fold change /veh KRT8 (11758183_x_at) / RFU CNN1 (11734310_a_at) / Fold change /veh CNN1 (11734310_a_at) / RFU VPS37D (11726825_at) / Fold change /veh VPS37D (11726825_at) / RFU C10orf10 (11716522_x_at) / Fold change /veh C10orf10 (11716522_x_at) / RFU KIR2DL2 /// KIR2DL4 /// KIR2DL5A /// KIR2DL5B /// KIR2DS1 /// KIR2DS2 /// KIR2DS3 /// KIR2DS4 /// KIR3DL3 /// KIR3DL3 /// KIR3DS1 (11738374_at) / Fold change /veh KIR2DL2 /// KIR2DL4 /// KIR2DL5A /// KIR2DL5B /// KIR2DS1 /// KIR2DS2 /// KIR2DS3 /// KIR2DS4 /// KIR3DL3 /// KIR3DL3 /// KIR3DS1 (11738374_at) / RFU C1QL1 (11718748_at) / Fold change /veh C1QL1 (11718748_at) / RFU TMPRSS4 (11747572_a_at) / Fold change /veh TMPRSS4 (11747572_a_at) / RFU HAMP (11756126_x_at) / Fold change /veh HAMP (11756126_x_at) / RFU RNFT2 (11725882_a_at) / Fold change /veh RNFT2 (11725882_a_at) / RFU NR4A2 (11747474_a_at) / Fold change /veh NR4A2 (11747474_a_at) / RFU ABCC12 (11746883_a_at) / Fold change /veh ABCC12 (11746883_a_at) / RFU TMEM136 (11760407_x_at) / Fold change /veh TMEM136 (11760407_x_at) / RFU CLDN22 /// WWC2 (11732394_at) / Fold change /veh CLDN22 /// WWC2 (11732394_at) / RFU HLA-DPB1 (11760878_x_at) / Fold change /veh HLA-DPB1 (11760878_x_at) / RFU SPINT1 (11716480_a_at) / Fold change /veh SPINT1 (11716480_a_at) / RFU GAP43 (11754022_s_at) / Fold change /veh GAP43 (11754022_s_at) / RFU A4GNT (11735810_at) / Fold change /veh A4GNT (11735810_at) / RFU PRB3 (11715151_x_at) / Fold change /veh PRB3 (11715151_x_at) / RFU TUBB4B (11761932_at) / Fold change /veh TUBB4B (11761932_at) / RFU CAPN14 (11732068_a_at) / Fold change /veh CAPN14 (11732068_a_at) / RFU TMCC2 (11721928_a_at) / Fold change /veh TMCC2 (11721928_a_at) / RFU IRGQ (11745062_a_at) / Fold change /veh IRGQ (11745062_a_at) / RFU FAM174B (11720279_a_at) / Fold change /veh FAM174B (11720279_a_at) / RFU TMPRSS4 (11748680_a_at) / Fold change /veh TMPRSS4 (11748680_a_at) / RFU FAM212B (11763350_a_at) / Fold change /veh FAM212B (11763350_a_at) / RFU PLEKHG5 (11743358_a_at) / Fold change /veh PLEKHG5 (11743358_a_at) / RFU ZSCAN30 (11745921_a_at) / Fold change /veh ZSCAN30 (11745921_a_at) / RFU CMKLR1 (11741424_a_at) / Fold change /veh CMKLR1 (11741424_a_at) / RFU LOC101060620 /// MAPK8IP1 (11723275_at) / Fold change /veh LOC101060620 /// MAPK8IP1 (11723275_at) / RFU SPTSSB (11747773_x_at) / Fold change /veh SPTSSB (11747773_x_at) / RFU PRSS12 (11739890_at) / Fold change /veh PRSS12 (11739890_at) / RFU BIN1 (11741810_x_at) / Fold change /veh BIN1 (11741810_x_at) / RFU WNT11 (11732464_a_at) / Fold change /veh WNT11 (11732464_a_at) / RFU C10orf10 (11716521_a_at) / Fold change /veh C10orf10 (11716521_a_at) / RFU C5orf56 (11738089_at) / Fold change /veh C5orf56 (11738089_at) / RFU CYB561 (11721691_x_at) / Fold change /veh CYB561 (11721691_x_at) / RFU ANKRD19P (11752326_a_at) / Fold change /veh ANKRD19P (11752326_a_at) / RFU OR2T12 /// OR2T33 /// OR2T8 (11738714_s_at) / Fold change /veh OR2T12 /// OR2T33 /// OR2T8 (11738714_s_at) / RFU VCAN (11748164_a_at) / Fold change /veh VCAN (11748164_a_at) / RFU JSRP1 (11732532_at) / Fold change /veh JSRP1 (11732532_at) / RFU KRTAP10-11 (11738290_x_at) / Fold change /veh KRTAP10-11 (11738290_x_at) / RFU MYO3A (11730013_a_at) / Fold change /veh MYO3A (11730013_a_at) / RFU EBF3 (11725865_a_at) / Fold change /veh EBF3 (11725865_a_at) / RFU CAMK2N1 (11719241_x_at) / Fold change /veh CAMK2N1 (11719241_x_at) / RFU C5orf56 (11738088_a_at) / Fold change /veh C5orf56 (11738088_a_at) / RFU OLFML3 (11715873_a_at) / Fold change /veh OLFML3 (11715873_a_at) / RFU LOC100653217 /// NTM (11731650_a_at) / Fold change /veh LOC100653217 /// NTM (11731650_a_at) / RFU MAPK11 (11762145_a_at) / Fold change /veh MAPK11 (11762145_a_at) / RFU FIZ1 (11724087_x_at) / Fold change /veh FIZ1 (11724087_x_at) / RFU OASL (11726364_x_at) / Fold change /veh OASL (11726364_x_at) / RFU SOX15 (11748057_x_at) / Fold change /veh SOX15 (11748057_x_at) / RFU CD79A (11719716_a_at) / Fold change /veh CD79A (11719716_a_at) / RFU HIST1H1D (11736915_at) / Fold change /veh HIST1H1D (11736915_at) / RFU CASKIN2 (11723855_a_at) / Fold change /veh CASKIN2 (11723855_a_at) / RFU LOC730098 (11760151_x_at) / Fold change /veh LOC730098 (11760151_x_at) / RFU OR4N2 (11742367_at) / Fold change /veh OR4N2 (11742367_at) / RFU PRRT2 (11749266_a_at) / Fold change /veh PRRT2 (11749266_a_at) / RFU SNX32 (11753110_a_at) / Fold change /veh SNX32 (11753110_a_at) / RFU CDHR5 (11726645_a_at) / Fold change /veh CDHR5 (11726645_a_at) / RFU RCAN1 (11760418_a_at) / Fold change /veh RCAN1 (11760418_a_at) / RFU FAM167A (11723789_a_at) / Fold change /veh FAM167A (11723789_a_at) / RFU FAM26E (11764081_at) / Fold change /veh FAM26E (11764081_at) / RFU ISYNA1 (11749810_s_at) / Fold change /veh ISYNA1 (11749810_s_at) / RFU ACY1 (11761880_at) / Fold change /veh ACY1 (11761880_at) / RFU 11764098_at / Fold change /veh 11764098_at / RFU SAMD14 (11745864_x_at) / Fold change /veh SAMD14 (11745864_x_at) / RFU NPB (11741838_a_at) / Fold change /veh NPB (11741838_a_at) / RFU TMPRSS6 (11731388_a_at) / Fold change /veh TMPRSS6 (11731388_a_at) / RFU KRTAP10-2 (11738614_at) / Fold change /veh KRTAP10-2 (11738614_at) / RFU ARHGAP8 /// PRR5-ARHGAP8 (11727945_x_at) / Fold change /veh ARHGAP8 /// PRR5-ARHGAP8 (11727945_x_at) / RFU KRTAP5-7 /// NADSYN1 (11734609_at) / Fold change /veh KRTAP5-7 /// NADSYN1 (11734609_at) / RFU RASL12 (11751679_a_at) / Fold change /veh RASL12 (11751679_a_at) / RFU CDKN2B (11736163_a_at) / Fold change /veh CDKN2B (11736163_a_at) / RFU PRF1 (11729649_at) / Fold change /veh PRF1 (11729649_at) / RFU, ZNF638 /// ZNF638-IT1 / Fold change vs veh, ZNF638 /// ZNF638-IT1 / RFU, PANK3 / Fold change vs veh, PANK3 / RFU, SH3YL1 / Fold change vs veh, SH3YL1 / RFU, ZEB2 / Fold change vs veh, ZEB2 / RFU, NRIP1 / Fold change vs veh, NRIP1 / RFU, PTTG1IP / Fold change vs veh, PTTG1IP / RFU, CAPN2 / Fold change vs veh, CAPN2 / RFU, MED14 / Fold change vs veh, MED14 / RFU, SNORA58 / Fold change vs veh, SNORA58 / RFU, C1orf63 / Fold change vs veh, C1orf63 / RFU, LRRFIP1 / Fold change vs veh, LRRFIP1 / RFU, NDUFAF7 / Fold change vs veh, NDUFAF7 / RFU, SLC12A2 / Fold change vs veh, SLC12A2 / RFU, IBTK / Fold change vs veh, IBTK / RFU, ESF1 / Fold change vs veh, ESF1 / Fold change vs veh, TMEM50B / RFU, TAOK1 / Fold change vs veh, TAOK1 / RFU, ACBD3 / Fold change vs veh, ACBD3 / RFU, TMA16 / Fold change vs veh, TMA16 / RFU, RWDD3 / Fold change vs veh, RWDD3 / RFU, BCAT1 / Fold change vs veh, BCAT1 / RFU, EDEM3 / Fold change vs veh, EDEM3 / RFU, TMEM33 / Fold change vs veh, TMEM33 / RFU, WDR75 / Fold change vs veh, WDR75 / RFU, AHCTF1 / Fold change vs veh, AHCTF1 / RFU, TFRC / Fold change vs veh, TFRC / RFU, ZDHHC17 / Fold change vs veh, ZDHHC17 / RFU, NOM1 / Fold change vs veh, NOM1 / RFU, ARL8B / Fold change vs veh, ARL8B / RFU, ZBTB11 / Fold change vs veh, ZBTB11 / RFU, TAMM41 / Fold change vs veh, TAMM41 / RFU, KIAA1704 /// LOC100996395 / Fold change vs veh, KIAA1704 /// LOC100996395 / RFU, ING1 / Fold change vs veh, ING1 / RFU, TRMT61B / Fold change vs veh, TRMT61B / RFU, FUBP3 / Fold change vs veh, FUBP3 / RFU, TP53 / Fold change vs veh, TP53 / RFU, TNKS2 / Fold change vs veh, TNKS2 / RFU, ZFP14 / Fold change vs veh, ZFP14 / RFU, ACTR2 / Fold change vs veh, ACTR2 / RFU, PPP3R1 / Fold change vs veh, PPP3R1 / RFU, PIK3R1 / Fold change vs veh, PIK3R1 / RFU, HNRNPA1 / Fold change vs veh, HNRNPA1 / RFU, RNF170 / Fold change vs veh, RNF170 / RFU, ZNF28 / Fold change vs veh, ZNF28 / RFU, RNGTT / Fold change vs veh, RNGTT / RFU, OGT / Fold change vs veh, OGT / RFU, BRD1 / Fold change vs veh, BRD1 / RFU, MARS / Fold change vs veh, MARS / RFU, ZNF655 / Fold change vs veh, ZNF655 / RFU, FAHD1 / Fold change vs veh, FAHD1 / RFU, BDP1 / Fold change vs veh, BDP1 / RFU, LRRCC1 / Fold change vs veh, LRRCC1 / RFU, ARID1A / Fold change vs veh, ARID1A / RFU, ZNF146 / Fold change vs veh, ZNF146 / RFU, ZNF330 / Fold change vs veh, ZNF330 / RFU, GPN3 / Fold change vs veh, GPN3 / RFU, C9orf123 / Fold change vs veh, C9orf123 / RFU, N4BP2L2 / Fold change vs veh, N4BP2L2 / RFU, ARFIP1 / Fold change vs veh, ARFIP1 / RFU, FAM179B / Fold change vs veh, FAM179B / RFU, BCL10 / Fold change vs veh, BCL10 / RFU, UHRF1BP1L / Fold change vs veh, UHRF1BP1L / RFU, BET1 / Fold change vs veh, BET1 / RFU, CNOT2 / Fold change vs veh, CNOT2 / RFU, ZNF268 / Fold change vs veh, ZNF268 / Fold change vs veh, ZNF507 / RFU, DGCR2 / Fold change vs veh, DGCR2 / RFU, WDSUB1 / Fold change vs veh, WDSUB1 / Fold change vs veh, HSP90B1 /// MIR3652 / RFU, ADSS / Fold change vs veh, ADSS / RFU, GK / Fold change vs veh, GK / RFU, ZNF148 / Fold change vs veh, ZNF148 / RFU, TAF9 / Fold change vs veh, TAF9 / RFU, SLC1A5 / Fold change vs veh, SLC1A5 / RFU, SLMO2 / Fold change vs veh, SLMO2 / RFU, ABCC4 / Fold change vs veh, ABCC4 / RFU, LOC101060439 /// RAP1B / Fold change vs veh, LOC101060439 /// RAP1B / RFU, RFX7 / Fold change vs veh, RFX7 / RFU, GTPBP10 / Fold change vs veh, GTPBP10 / RFU, CNEP1R1 / Fold change vs veh, CNEP1R1 / RFU, BIVM-ERCC5 /// ERCC5 / Fold change vs veh, BIVM-ERCC5 /// ERCC5 / RFU, ILF3 / Fold change vs veh, ILF3 / RFU 11762660_at / Fold change /veh 11762660_at / RFU VCAN (11757783_s_at) / Fold change /veh VCAN (11757783_s_at) / RFU DDX43 (11728927_at) / Fold change /veh DDX43 (11728927_at) / RFU KRT8 (11758188_x_at) / Fold change /veh KRT8 (11758188_x_at) / RFU NKD1 (11759106_at) / Fold change /veh NKD1 (11759106_at) / RFU SRD5A1 (11742802_a_at) / Fold change /veh SRD5A1 (11742802_a_at) / RFU TPSAB1 /// TPSB2 (11721975_s_at) / Fold change /veh TPSAB1 /// TPSB2 (11721975_s_at) / RFU GSTM3 (11746129_a_at) / Fold change /veh GSTM3 (11746129_a_at) / RFU IL23R (11737362_x_at) / Fold change /veh IL23R (11737362_x_at) / RFU TMEM51 (11727254_a_at) / Fold change /veh TMEM51 (11727254_a_at) / RFU PIWIL2 (11732686_x_at) / Fold change /veh PIWIL2 (11732686_x_at) / RFU ORM1 (11744905_x_at) / Fold change /veh ORM1 (11744905_x_at) / RFU CCDC152 (11743942_at) / Fold change /veh CCDC152 (11743942_at) / RFU ECM1 (11717891_a_at) / Fold change /veh ECM1 (11717891_a_at) / RFU IL23R (11748794_a_at) / Fold change /veh IL23R (11748794_a_at) / RFU TNFAIP8L3 (11732012_x_at) / Fold change /veh TNFAIP8L3 (11732012_x_at) / RFU MBOAT4 (11741988_at) / Fold change /veh MBOAT4 (11741988_at) / RFU 11764193_at / Fold change /veh 11764193_at / RFU TMEM53 (11763286_at) / Fold change /veh TMEM53 (11763286_at) / RFU MAGEB2 (11727129_at) / Fold change /veh MAGEB2 (11727129_at) / RFU TMEM200A (11744735_a_at) / Fold change /veh TMEM200A (11744735_a_at) / RFU CCDC152 (11751479_a_at) / Fold change /veh CCDC152 (11751479_a_at) / RFU FAM211A (11726209_a_at) / Fold change /veh FAM211A (11726209_a_at) / RFU RGS16 (11746705_a_at) / Fold change /veh RGS16 (11746705_a_at) / RFU VCAN (11755009_s_at) / Fold change /veh VCAN (11755009_s_at) / RFU RHOB (11743442_s_at) / Fold change /veh RHOB (11743442_s_at) / RFU RGS16 (11720943_a_at) / Fold change /veh RGS16 (11720943_a_at) / RFU RGS16 (11720944_at) / Fold change /veh RGS16 (11720944_at) / RFU, VPS4B / Fold change vs veh, VPS4B / RFU, CREB1 / Fold change vs veh, CREB1 / RFU, DNAJC13 / Fold change vs veh, DNAJC13 / RFU, GNAQ / Fold change vs veh, GNAQ / RFU, CDK5R1 / Fold change vs veh, CDK5R1 / RFU, ZRANB3 / Fold change vs veh, ZRANB3 / RFU, CUL4A / Fold change vs veh, CUL4A / RFU, CCNY / Fold change vs veh, CCNY / RFU, UFL1 / Fold change vs veh, UFL1 / RFU, COG3 / Fold change vs veh, COG3 / RFU, DIAPH2 / Fold change vs veh, DIAPH2 / RFU, SKA2 / Fold change vs veh, SKA2 / RFU, AFF3 / Fold change vs veh, AFF3 / RFU, LMF1 / Fold change vs veh, LMF1 / RFU, IPO11 / Fold change vs veh, IPO11 / RFU, DFFB / Fold change vs veh, DFFB / RFU, FOXP1 / Fold change vs veh, FOXP1 / RFU, CARD8 / Fold change vs veh, CARD8 / RFU, STRN3 / Fold change vs veh, STRN3 / RFU, ADK / Fold change vs veh, ADK / RFU, RASSF2 / Fold change vs veh, RASSF2 / RFU, WIPF1 / Fold change vs veh, WIPF1 / RFU, LARP1B / Fold change vs veh, LARP1B / RFU, RASA1 / Fold change vs veh, RASA1 / RFU, RB1 / Fold change vs veh, RB1 / RFU, PPFIA1 / Fold change vs veh, PPFIA1 / RFU, MAT2A / Fold change vs veh, MAT2A / RFU, CCT5 / Fold change vs veh, CCT5 / RFU, WDR92 / Fold change vs veh, WDR92 / RFU, CUX1 / Fold change vs veh, CUX1 / RFU, TTC7A / Fold change vs veh, TTC7A / RFU, TMEM135 / Fold change vs veh, TMEM135 / RFU, DEPTOR / Fold change vs veh, DEPTOR / RFU, CPM / Fold change vs veh, CPM / RFU, DNAJB6 / Fold change vs veh, DNAJB6 / RFU, CACNA2D3 / Fold change vs veh, CACNA2D3 / RFU, DTX4 / Fold change vs veh, DTX4 / RFU, TFCP2 / Fold change vs veh, TFCP2 / RFU, GMCL1 /// GMCL1P1 / Fold change vs veh, GMCL1 /// GMCL1P1 / RFU, AEBP2 / Fold change vs veh, AEBP2 / RFU, SNHG1 /// SNORD22 /// SNORD25 /// SNORD26 /// SNORD27 /// SNORD28 /// SNORD29 /// SNORD31 / Fold change vs veh, SNHG1 /// SNORD22 /// SNORD25 /// SNORD26 /// SNORD27 /// SNORD28 /// SNORD29 /// SNORD31 / Fold change (Aza/veh), C12orf56 (ProbeSet 11735607_a_at) / Fold change (ACY-1035/veh), C12orf56 (ProbeSet 11735607_a_at) / Fold change (Aza/veh), FGFR1OP (ProbeSet 11751329_s_at) / Fold change (ACY-1035/veh), FGFR1OP (ProbeSet 11751329_s_at) / Fold change (Aza/veh), VPS36 (ProbeSet 11739960_a_at) / Fold change (ACY-1035/veh), VPS36 (ProbeSet 11739960_a_at) / RFU SYPL1 (11715823_x_at) / Fold change /veh SYPL1 (11715823_x_at) / RFU IGFBP7 (11715501_s_at) / Fold change /veh IGFBP7 (11715501_s_at) / RFU REEP3 (11722064_at) / Fold change /veh REEP3 (11722064_at) / RFU IGLL1 (11728026_x_at) / Fold change /veh IGLL1 (11728026_x_at): dose or concentration left out as unconfirmed
Conditions: ProbeSet 11758919_x_at; LIST D

Nc1ccc(-c2cccs2)cc1NC(=O)c1ccc2c(c1)cc(C1CC1)n2CCN1CCOCC1 [ACY-1035]
RFU, TFCP2: 87.13 RFU

Source: publication PMC5218480 (PLoS ONE, 2017)
